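48-hour exposure; five concentrations; linearly interpolated endpoints. Definition used: TGI = concentration required for complete inhibition of growth.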
Key:
Assay in all cases: inhibition of tumour cell growth, NCI panel, 48 h
DU-145 prostate = test system: DU-145 prostate
MALME-3M melanoma = test system: MALME-3M melanoma
HT29 colon = test system: HT29 colon
SF-268 CNS = test system: SF-268 CNS
MDA-N = test system: MDA-N
UACC-62 melanoma = test system: UACC-62 melanoma
U251 CNS = test system: U251 CNS
A498 renal = test system: A498 renal
SW-620 colon = test system: SW-620 colon
HS 578T breast = test system: HS 578T breast
UACC-257 melanoma = test system: UACC-257 melanoma
KM12 colon = test system: KM12 colon

SMILES	TGI (DU-145 prostate)	TGI (MALME-3M melanoma)	TGI (HT29 colon)	TGI (SF-268 CNS)	TGI (MDA-N)	TGI (UACC-62 melanoma)	TGI (U251 CNS)	TGI (A498 renal)	TGI (SW-620 colon)	TGI (HS 578T breast)	TGI (UACC-257 melanoma)	TGI (KM12 colon)
CCOC(=O)c1c(SCCN2CCCC2)n(-c2ccccc2)c(=S)n(-c2ccccc2)c1=O	3.11 µM	3.36 µM	11.5 µM	10.1 µM	6.01 µM	7.29 µM	16.7 µM	22.5 µM	7.58 µM	> 100 µM	3.34 µM	29.8 µM
C=CC/C(C(=O)OC)=C(/C(=O)OC)N(CCC)CCC	> 100 µM	> 100 µM	> 100 µM	> 100 µM	> 100 µM	> 100 µM	> 100 µM	> 100 µM	> 100 µM	> 100 µM	> 100 µM	> 100 µM
CC1=CC=CC(C)(C)CC1(O[Si](C)(C)C)C(F)(F)F (centres undefined)	> 100 µM	> 100 µM	> 100 µM	> 100 µM	> 100 µM	> 100 µM	> 100 µM	> 100 µM	> 100 µM	> 100 µM	> 100 µM	> 100 µM
CCN(CCCN(CC)C(=O)N[C@@H](Cc1ccccc1)C(=O)NC)C(=O)N[C@@H](Cc1ccccc1)C(=O)NC	> 100 µM	> 100 µM	> 100 µM	> 100 µM	> 100 µM	> 100 µM	> 100 µM	> 100 µM	> 100 µM	> 100 µM	> 100 µM	> 100 µM
O=C1OC[C@@H]2Cc3c([nH]c4ccccc34)[C@@H](c3ccc(O)cc3)N12	> 100 µM	85.1 µM	98.4 µM	> 100 µM	> 100 µM	69.8 µM	> 100 µM	> 81 µM	> 100 µM	> 100 µM	72.2 µM	53.1 µM
O=C1CC(c2ccc([N+](=O)[O-])cc2)C2(C(=O)NC(=S)NC2=O)C(c2ccc([N+](=O)[O-])cc2)C1 (centres undefined)	83.3 µM	32.2 µM	> 100 µM	45.6 µM	> 100 µM	32.6 µM	37 µM	85 µM	> 100 µM	88.2 µM	40.9 µM	36.3 µM
Nc1ncnc2c1ncn2C(=O)NC12CC3CC(CC(C3)C1)C2	> 100 µM	> 100 µM	> 100 µM	> 100 µM	> 100 µM	> 100 µM	> 100 µM	> 100 µM	> 100 µM	> 100 µM	> 100 µM	> 100 µM
CN(C)c1ccc(/C(Br)=C2\OC(=O)c3ccccc32)cc1	> 100 µM	> 100 µM	> 100 µM	> 100 µM	> 100 µM	> 100 µM	> 100 µM	> 100 µM	> 100 µM	> 100 µM	> 100 µM	> 100 µM
CCOC(=O)C1C(=O)CC(O)(c2ccccc2)C(C(=O)OCC)C1c1ccc(OC)cc1 (centres undefined)	> 100 µM	> 100 µM	35.9 µM	> 100 µM	16 µM	> 100 µM	> 76.8 µM	> 100 µM	> 74.3 µM	53.7 µM	> 100 µM	39.8 µM
O=C1/C(=C/c2ccc(Br)s2)NC(=S)N1CN1CCOCC1	> 100 µM	> 100 µM	> 100 µM	> 100 µM	> 100 µM	48.6 µM	> 100 µM	> 100 µM	> 100 µM	> 100 µM	> 100 µM	> 100 µM
CCC[C@H](C)[C@H]1NC(=O)[C@@H](NC(=O)[C@@H](CC(C)C)N(C)C(=O)C2CCCN2C(=O)[C@H](C)O)[C@@H](C)OC(=O)[C@H](CC(C)C)N(C)C(=O)[C@@H]2CCCN2C(=O)[C@H](CC(C)C)NC(=O)[C@@H](C)C(=O)[C@H](C(C)C)OC(=O)C[C@@H]1O (some centres undefined)	0.0143 µM	< 0.0025 µM	0.0102 µM	0.0303 µM	0.0205 µM	0.0027 µM	< 0.0025 µM	0.0376 µM	0.00524 µM	1.04 µM	0.0205 µM	1.27 µM
CN1CN(c2ccccc2)C2(CCN(CCCC3(c4cccs4)OCCO3)CC2)C1=O	> 100 µM	> 100 µM	> 100 µM	> 100 µM	> 100 µM	> 100 µM	> 100 µM	> 100 µM	> 100 µM	> 100 µM	> 100 µM	> 100 µM
C[C@@H]1C[C@H](O)[C@]2(O)O[C@@H]3C[C@@]4(C=O)[C@@H](CC=C5[C@@H]4CC[C@]4(C)[C@@H](C6=CC(=O)OC6)CC[C@]54O)C[C@H]3O[C@@H]2O1	0.0384 µM	0.0532 µM	0.25 µM	0.166 µM	0.195 µM		0.188 µM	0.0627 µM	1.87 µM	0.191 µM	0.372 µM	0.749 µM
O=C(CCc1ccc(O)cc1)c1c(O)cc(O)cc1OC1OC(CO)C(O)C(O)C1O (centres undefined)	> 100 µM	> 100 µM	> 100 µM	> 100 µM	> 100 µM	> 100 µM		> 100 µM	> 100 µM	> 100 µM	> 100 µM	> 100 µM
Cc1cc(C)c2c(n1)S(=O)(=O)N(CCCN1CCN(c3cccc(C(F)(F)F)c3)CC1)/C(=C(\O)c1ccc(Cl)cc1)C2=O	19.9 µM	15.8 µM	13.3 µM	21.2 µM	15 µM	18.3 µM	14.3 µM	16.9 µM	39 µM	56.8 µM	8.49 µM	14.6 µM
C(=Nc1ccc(-c2nc3ccccc3s2)cc1)c1ccco1	> 100 µM	> 100 µM	> 100 µM	> 100 µM	> 100 µM	> 100 µM	> 100 µM	99.3 µM	> 100 µM	> 100 µM	> 100 µM	> 100 µM
O=C1N[C@@H]2c3c(csc3Br)C(=O)[C@@H]2O1	> 100 µM	> 100 µM	> 100 µM	> 100 µM	67.6 µM	> 100 µM	69.2 µM	> 100 µM	50.5 µM	> 100 µM	58.9 µM	> 100 µM
CCOP(=O)(OCC)/C(F)=C/c1ccccc1	> 100 µM	> 100 µM	> 100 µM	> 100 µM	> 100 µM	> 100 µM	> 100 µM	> 100 µM	> 100 µM	> 100 µM	> 100 µM	> 100 µM
